In US12111318B2, “Method for treating cancer based on expression levels of translationally controlled tumor protein (TCTP)” (KOREA UNIVERSITY RESEARCH AND BUSINESS FOUNDATION, priority 2020, dated 2024):
Where two headings read alike, the source gives them in different places.

What was measured:
CT26 No cells = assay: Cell viability assay (trypan blue exclusion), CT26 No cells; format: cell-based; details: Mus musculus, 24 hours, read-out: IC50 (concentration causing a 50% decrease in cell viability)
Description: (§1) CT26 tumor cells were treated with indicated concentrations of cisplatin, dihydroartemisinin, rapamycin, sertraline, and thioridazine for 24 hours. Cell viability was measured by the trypan blue exclusion assay, and the concentrations causing a 50% decrease in cell viability (IC50 values) were determined.

CT26 TCTP cells = assay: Cell viability assay (trypan blue exclusion), CT26 TCTP cells; format: cell-based
Description: as §1

CT26 TCTP tumor cells = test system: CT26 TCTP tumor cells
Description: The tumor cells were harvested by trypsinization and washed once with DMEN (Thermo Fisher, USA) containing 0.1% fetal bovine (FBS), resuspended, and labeled in 0.1% DMEN with 10 μM CFSE for 10 minutes in a 37° C. incubator with 5% CO2. Then, the CFSE-labeled (MCF-7, HCT116, CaSki, MDA-MB-231) tumor cells were resuspended in 10 μM MART-1 peptide containing 1 ml of DMEM. In the case of A375 and 526Mel, the peptide-pulsing process was not needed. After peptide-pulsing for 1 hour, the cells were incubated for 4 hours with MART-1- or the NY-ESO1-specific CD8+ T cell lines at an E/T ratio of 1:1. […] All analysis was performed using a Becton Dickinson FACSverse (BD Bioscience, USA).
To further investigate the effect of each drug on sensitizing TCTP^high tumor cells to CTL-mediated killing, CT26 TCTP tumor cells were incubated with CTLs at various tumor cell-T cell ratios after treatment with a sublethal dose of each drug.
To quantify the synergistic effects of treatment of each drug with CTLs, a combination score was calculated based on changes in the percentage of apoptosis in drug-treated tumor cells with or without CTLs (see the following formula 1). […] Formula 1

CT26 P3 tumor = assay: ICB-refractory CT26 P3 tumor-bearing mice, anti-PD-L1 antibody alone or combined with DHA; format: in vivo, mouse; details: both the anti-PD-L1 blockade agent and DHA; all mice in the other groups died
Description: Next, the present inventors expanded the preclinical therapeutic value of DHA in ICB therapy. To do this, ICB-refractory CT26 P3 tumor-bearing mice were administered anti-PD-L1 antibody alone or combined with DHA (FIG. 7G).

SMILES: C[C@H]1[C@@H](O)O[C@@H]2O[C@@]3(C)CC[C@H]4[C@H](C)CC[C@@H]1[C@@]24OO3 [DHA, dihydroartemisinin]
- IC50 (CT26 No cells): 408 µM
- Difference of IC50 between CT26 No and CT26 TCTP cells (CT26 TCTP cells; CT26 No vs CT26 TCTP): about 20 fold
- IC50 (CT26 TCTP cells; Mus musculus, CT26 TCTP cells, 24 hours, read-out: IC50 (concentration causing a 50% decrease in cell viability)): 22.7 µM
- CTL-mediated cytotoxicity (CT26 TCTP tumor cells; sublethal dose of each drug, then CTLs at various tumor cell-T cell ratios, compared to PBS or cisplatin): augmented CTL-mediated cytotoxicity in a synergistic fashion
- Mice that survived (CT26 P3 tumor): 90%

SMILES: N.N.[Cl][Pt][Cl] [cisplatin]
- Susceptibility of CT26 TCTP cells to the drug (CT26 TCTP cells; CT26 TCTP vs CT26 No cells, 24 hours): refractory

SMILES: CN[C@H]1CC[C@@H](c2ccc(Cl)c(Cl)c2)c2ccccc21 [sertraline]
- CTL-mediated cytotoxicity (CT26 TCTP tumor cells): augmented CTL-mediated cytotoxicity in a synergistic fashion

SMILES: CSc1ccc2c(c1)N(CCC1CCCCN1C)c1ccccc1S2 (stereo not drawn) [thioridazine]
- CTL-mediated cytotoxicity (CT26 TCTP tumor cells): augmented CTL-mediated cytotoxicity in a synergistic fashion

SMILES: CO[C@H]1C[C@@H]2CC[C@@H](C)[C@@](O)(O2)C(=O)C(=O)N2CCCC[C@H]2C(=O)O[C@H]([C@H](C)C[C@@H]2CC[C@@H](O)[C@H](OC)C2)CC(=O)[C@H](C)/C=C(\C)[C@@H](O)[C@@H](OC)C(=O)[C@H](C)C[C@H](C)/C=C/C=C/C=C/1C [rapamycin]
- CTL-mediated cytotoxicity (CT26 TCTP tumor cells): augmented CTL-mediated cytotoxicity in a synergistic fashion
